What was measured:
N2a [1] = assay: Neuroprotective activity against thapsigargin-induced ER stress in mouse Neuro2a cells assessed as cell viability at 10 to 100 ug/ml pre-incubated for 2 hrs followed by thapsigargin addition for 22 hrs by MTT assay; type: functional, cell-based; details: dose 10-100 µg/ml, time 24.0 hrs
N2a [2] = assay: Neuroprotective activity against tunicamycin-induced ER stress in mouse Neuro2a cells assessed as cell viability at 10 to 100 ug/ml pre-incubated for 2 hrs followed by tunicamycin addition for 22 hrs by MTT assay; type: functional, cell-based; details: dose 10-100 µg/ml, time 24.0 hrs

Row | SMILES | Activity (N2a [1]) | Activity (N2a [2])
1 | CCCCCCCCCCCCCCCC(=O)OCc1cc(OC)c(C[C@H]2O[C@]2(C)CC(=O)C=C(C)C)c(O)c1C=O (racemic) | Not active; No Protective Activity | Not active; No Protective Activity
2 | CCCCCCCCCCCCCCCC(=O)OCc1cc(OC)c2c(c1C=O)OC(/C(C)=C/C(=O)C=C(C)C)C2 (racemic) | Active; Significant Protective Activity | Active; Significant Protective Activity
3 | CCCCCCCCCCCCCCCC(=O)OCc1cc(OC)c2c(c1C=O)OC(/C(C)=C\C(=O)C=C(C)C)C2 (racemic) | Active; Significant Protective Activity | Active; Significant Protective Activity
